Results published in PMC4805609, “Estrogenic Effects of Several BPA Analogs in the Developing Zebrafish Brain” (Frontiers in Neuroscience, 2016).

Assays:
cyp19a1b gene = experiment: RT-qPCR of cyp19a1b transcripts in wild type 7-dpf larva brains; details: for fold induction at 1 µM: Danio rerio, read-out: cyp19a1b gene expression, fold induction relative to DMSO, 1 μM, 7-dpf larvae brains, six independent exposures, Figure 1B
Procedure: (§1) For subsequent RT-qPCR and in situ hybridization analysis with wild type zebrafish, groups of 80 embryos (for each condition) were placed after 1 day post-fertilization (1-dpf) in a large glass flask containing 100 ml of embryonic medium (Mouriec et al., [2009b]). […] The embryos were held in the exposure flasks until 7-dpf larva stage. […] Embryos were maintained in the exposure dishes until 4-dpf larva stage. During the treatment period, 100% of the exposure medium was renewed every 24 h (for both wild type and transgenic zebrafish).
Tissue was sonicated (10 s, 3 times) in 250 μL Trizol Reagent (Invitrogen) and RNA extractions were carried out according to the manufacturer's protocol. Reverse transcription was carried out by incubating 2μg total RNA with 1μg of random primer oligonucleotides, 2.5ṁM dNTPs, and 50 U MMLV-RT (Promega) in the appropriate buffer for 10 min at 65°C and 60 min at 37°C. Quantitative Polymerase chain reaction (qPCR) experiments were performed in an iCycler thermocycler coupled to the MyiQ detector (Bio-Rad. Hercules, CA, USA) using iQ SYBR-Green Supermix (Bio-Rad) according to the manufacturer's protocol. The following primers were used: ef1 (fw) 5′-[…]-3′; ef1 (rev) 5′-[…]-3′; cyp19a1b (AroB; fw) 5′-[…] For each condition, the RT-PCR experiment was run in triplicates. Expression levels of ef1 mRNA were used to normalize cyp19a1b expression levels. Melting curve and PCR efficiency analyses were performed to confirm correct amplification. For quantification of PCR results, the threshold cycle (Ct) was determined for each reaction. Ct values for each gene of interest were normalized with the housekeeping gene ef1, using the ΔΔCt method. Normalized values were used to calculate the degree of induction or inhibition expressed as a “fold difference” compared to normalized control values.

cyp19a1b promoter = experiment: EASZY assay: GFP fluorescence in brain of live cyp19a1b-GFP transgenic 4-dpf larvae; assay type: in vivo, zebrafish; details: 4-dpf cyp19a1b-GFP larvae, exposure 2 hpf to 4 dpf; for fold induction at 1 µM: Danio rerio, read-out: GFP fluorescence, fold induction above DMSO control
Procedure: Quantification of fluorescence in transgenic cyp19a1b-GFP zebrafish larva brain was performed according to Brion et al. ([2012]). In this assay, estrogenic activity is detected in living 4 days-old larvae (treated or not with an estrogen mimic compound) from the observation of the reporter gene fluorescence in the radial glial cells. […] All photographs were taken using the same parameters: only the head was photographed under a X10 objective, with a 134 ms exposure time and maximal intensity. Photographs were analyzed using the Axiovision Imaging software and fluorescence quantification was performed using the ImageJ software (http://rsbweb.nih.gov/ij/). For each picture, the integrated density was measured, i.e., the sum of the gray-values of all the pixels within the region of interest. A gray-value of 290 was defined as background value. For each micrograph the fluorescence fold induction of fluorescence was calculated comparing the integrated pixel density with the average fluorescence induction obtained in the control group.

cyp19a1b transcripts = experiment: cyp19a1b in situ hybridization on 7-dpf brain sections; assay type: in vivo, zebrafish; details: 1 μM, 7-dpf larvae; for distribution of cyp19a1b transcripts in the whole brain: transverse sections
Procedure: as §1
Larvae used for in situ hybridization experiments originated from the same exposition groups than RT-qPCR experiments. After exposure to the different conditions, 10 wild type 7-dpf larvae (for each treatment) were fixed overnight at 4°C in 4% paraformaldehyde, before embedding in parrafin. Serial thin transverse sections ([…]) were placed on cryofrost slides and subjected to in situ hybridization experiments. Sense and antisense digoxigenin-labeled riboprobes for the cyp19a1b gene were transcribed using the Digoxigenin RNA labeling kit in accordance with the manufacturer's instructions (Roche, Mannheim, Germany) and as previously described (Menuet et al., [2005]). The brain sections were processed for in situ hybridization using stringent conditions as previously published (D'Amico et al., [2011], [2013]). After NBT/BCIP revelation, sections were counterstained with DAPI, and mounted in a drop of vectashield (Vector Laboratories). All sections were photographed with an Olympus PROVIS AX70 microscope with a digital camera (Olympus SP71), or a Nikon multizoom AZ100 macroscope with a DS-Ri1 color camera.

zfERα = molecular target: T1, zfERα (Danio rerio, UniProt P57717); experiment: cyp19a1b-luciferase reporter gene assay in U251-MG glial cells transfected with zfERα; assay type: cell-based, zebrafish; parameters: containing the coding regions of each zebrafish estrogen receptor cDNA; expressed in transfected cells; host or cells: human U251-MG glial cells (ER-negative); details: 10–6 M, 24 h, U251-MG cells with ERα, vs DMSO
T1 sequence (P57717 1-569): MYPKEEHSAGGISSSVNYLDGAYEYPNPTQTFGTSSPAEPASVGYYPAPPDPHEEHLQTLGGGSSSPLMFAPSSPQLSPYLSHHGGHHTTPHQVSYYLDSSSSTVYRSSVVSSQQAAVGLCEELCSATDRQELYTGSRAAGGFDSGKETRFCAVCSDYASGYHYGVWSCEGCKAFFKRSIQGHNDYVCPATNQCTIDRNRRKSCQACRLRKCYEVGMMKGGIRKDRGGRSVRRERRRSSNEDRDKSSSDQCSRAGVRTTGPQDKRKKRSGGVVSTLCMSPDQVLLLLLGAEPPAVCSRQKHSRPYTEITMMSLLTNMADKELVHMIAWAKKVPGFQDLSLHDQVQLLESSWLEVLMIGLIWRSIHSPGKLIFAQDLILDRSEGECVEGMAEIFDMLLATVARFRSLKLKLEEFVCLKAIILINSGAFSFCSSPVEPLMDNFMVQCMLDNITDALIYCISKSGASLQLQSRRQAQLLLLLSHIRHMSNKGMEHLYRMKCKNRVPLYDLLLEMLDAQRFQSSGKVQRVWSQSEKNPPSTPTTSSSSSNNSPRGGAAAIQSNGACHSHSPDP
Procedure: (§2) The medium was also supplemented with 20 U/mL penicillin, 20 μg/mL streptomycin, and 50 ng/mL amphotericin B (Gibco). For transfections, cells were plated in 24-well plates at a density of 25,000 cells/ml in the same medium, except the fetal calf serum was charcoal-treated and used at a concentration of 2.5%. Cells were transfected with 25 ng/well either the vector expression containing or not the zfERα, zfERβ1, zfERβ2 coding region and cytomegalovirus [CMV]−β-Galactosidase, and 150 ng/well of the cyp19a1b-Luciferase reporter plasmid, using JetPEI as a transfection reagent (Polyplus Transfection, Illkirch, France). […] Luciferase activity was measured 24 h later (Luciferase assay system, Promega, Madison, WI, USA). β-Galactosidase activity was used to normalize transfection efficiency. Chemicals were tested in at least 3 independent experiments and each experiment was performed in triplicate.

zfERβ2 = zfERβ2 (Danio rerio, UniProt Q7ZU32); experiment: cyp19a1b-luciferase reporter gene assay in U251-MG glial cells transfected with zfERβ2; assay type: cell-based, zebrafish; details: 10–6 M, 24 h, U251-MG cells with ERβ2, vs DMSO
Procedure: as §2

zfERβ2, sequence (Q7ZU32 1-553): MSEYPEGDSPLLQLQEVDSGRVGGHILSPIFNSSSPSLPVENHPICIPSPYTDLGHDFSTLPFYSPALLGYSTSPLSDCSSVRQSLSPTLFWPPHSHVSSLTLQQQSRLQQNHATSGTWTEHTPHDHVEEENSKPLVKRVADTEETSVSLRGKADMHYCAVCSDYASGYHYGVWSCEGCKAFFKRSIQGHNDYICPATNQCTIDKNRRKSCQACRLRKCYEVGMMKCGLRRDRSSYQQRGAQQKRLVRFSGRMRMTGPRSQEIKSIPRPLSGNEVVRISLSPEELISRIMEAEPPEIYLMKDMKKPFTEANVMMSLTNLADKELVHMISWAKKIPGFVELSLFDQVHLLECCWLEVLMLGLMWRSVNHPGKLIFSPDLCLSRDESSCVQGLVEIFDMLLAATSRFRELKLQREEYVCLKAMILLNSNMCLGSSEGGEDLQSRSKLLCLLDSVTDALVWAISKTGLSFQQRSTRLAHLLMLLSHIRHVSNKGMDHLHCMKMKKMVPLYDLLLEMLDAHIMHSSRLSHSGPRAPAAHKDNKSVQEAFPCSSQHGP

Compound | fold induction at 1 µM (cyp19a1b gene) | fold induction at 1 µM (cyp19a1b promoter) | distribution of cyp19a1b transcripts in the whole brain (cyp19a1b transcripts) | cyp19a1b-luciferase reporter gene induction (zfERα) | cyp19a1b gene expression, fold induction relative to DMSO (cyp19a1b gene; 1 μM, 7-dpf larvae brains, six independent exposures, Figure 1B) | GFP fluorescence, fold induction above DMSO control (cyp19a1b promoter; 1 μM) | cyp19a1b transcripts in the nucleus recessus posterioris (nrp), caudal hypothalamus (cyp19a1b transcripts) | cyp19a1b-luciferase reporter gene induction (zfERβ2)
Oc1ccc(C(c2ccc(O)cc2)(C(F)(F)F)C(F)(F)F)cc1 [BPAF, 2,2-bis(4-hydroxylphenyl)hexafluoropropane] | ~43 | 14 | identical to EE2- and BPA-treated animals | significant stimulation | – | – | – | –
CC(c1ccccc1)(c1ccc(O)cc1)c1ccc(O)cc1 [BPAP, 4,4′-(1-phenylethylidene)bisphenol] | – | – | induces expression of cyp19a1b transcripts in only a few (xeno) estrogen-sensitive cyp19a1b expression sites | did not stimulate | no effect | did not affect GFP fluorescence signal | increase in cyp19a1b transcripts in the nrp region (Figure 5H) albeit to a lower levels | did not stimulate
O=S(=O)(c1ccc(O)cc1)c1ccc(O)cc1 [BPS, bis-(4-hydroxyphenyl)sulfone] | ~41 | 6 | identical to EE2- and BPA-treated animals | did not stimulate | – | – | – | did not stimulate
